Assay results as given in patent publication US8530468B2 (Cancer Research Technology Limited, priority 2008, dated 2013).

Tests used:
[1] = system: HT29 colon carcinoma cells; assay: Cytotoxicity assay (SRB); type: cell-based; details: Homo sapiens, HT-29, 96 hours, read-out: SRB IC50 (concentration required to inhibit growth by 50%)
CHK1 = target: T1, CHK1 (Homo sapiens, UniProt O14757); assay: CHK1 kinase function inhibition (DELFIA assay, phosphorylation of CDC25C peptide); type: biochemical; details: CHK1 1 nM, ATP 30 μM, 30 minutes at room temperature
T1 sequence (O14757 1-476): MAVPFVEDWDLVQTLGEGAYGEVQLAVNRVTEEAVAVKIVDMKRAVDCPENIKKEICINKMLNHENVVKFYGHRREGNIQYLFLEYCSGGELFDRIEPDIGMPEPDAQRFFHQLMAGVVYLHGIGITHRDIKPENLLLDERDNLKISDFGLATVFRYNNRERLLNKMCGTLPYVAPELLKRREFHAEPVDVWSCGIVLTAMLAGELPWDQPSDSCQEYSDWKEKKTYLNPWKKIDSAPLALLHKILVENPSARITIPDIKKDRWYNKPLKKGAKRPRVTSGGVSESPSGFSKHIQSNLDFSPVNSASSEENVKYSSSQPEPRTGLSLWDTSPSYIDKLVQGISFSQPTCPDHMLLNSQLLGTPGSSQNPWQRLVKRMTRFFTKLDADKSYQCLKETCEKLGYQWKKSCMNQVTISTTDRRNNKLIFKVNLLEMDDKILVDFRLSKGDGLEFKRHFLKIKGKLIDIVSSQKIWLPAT

HT29 cells = assay: Mitosis inhibition assay (MIA), checkpoint abrogation after etoposide; type: cell-based; details: Homo sapiens, HT-29, etoposide 50 μM 1 hour, then compound with nocodazole 100 ng/mL, 21 hours, read-out: MIA IC50 (concentration required to allow 50% of cells to enter mitosis)

| Structure (SMILES) | IC50 (CHK1) | IC50 (HT29 cells) | IC50 [1] |
| --- | --- | --- | --- |
| N#Cc1ncc(Nc2cc3ccccc3cn2)nc1OC[C@H]1CNCCO1 [AA-049] | ≤ 1 µM | ≤ 10 µM | ≤ 10 µM |
| CC(CN(C)C)Oc1nc(Nc2cc3cccc(NCCO)c3cn2)cnc1C#N (stereo not drawn) [AA-032] | ≤ 1 µM | ≤ 10 µM | ≤ 10 µM |
| C[C@H](CN(C)C)Oc1nc(Nc2cc3cccc(NCCCO)c3cn2)cnc1C#N [AA-041] | ≤ 1 µM | ≤ 10 µM | ≤ 10 µM |
| CC(CN(C)C)Oc1nc(Nc2cc3cccc(Br)c3cn2)cnc1C#N (stereo not drawn) [AA-026] | ≤ 1 µM | ≤ 10 µM | ≤ 10 µM |
| N#Cc1cnc(Nc2cc3cccc(NCCCN4CCOCC4)c3cn2)cn1 [AA-027] | ≤ 1 µM | ≤ 10 µM | ≤ 10 µM |
| N#Cc1ncc(Nc2cc3cccc(NCCO)c3cn2)nc1O[C@@H]1CCNC1 [AA-044] | ≤ 1 µM | ≤ 10 µM | ≤ 10 µM |
| N#Cc1cnc(Nc2cc3cccc(NCCN4CCOCC4)c3cn2)cn1 [AA-020, 5-(8-(2-morpholinoethylamino)isoquinolin-3-ylamino)pyrazine-2-carbonitrile] | ≤ 1 µM | ≤ 10 µM | ≤ 10 µM |
| N#Cc1cnc(Nc2cc3cccc(NCCCO)c3cn2)cn1 [AA-033] | ≤ 1 µM | ≤ 10 µM | ≤ 10 µM |
| N#Cc1ncc(Nc2cc3cccc(NCCO)c3cn2)nc1OC[C@H]1CNCCO1 [AA-043] | ≤ 1 µM | ≤ 10 µM | ≤ 10 µM |
| CN1CCC(COc2nc(Nc3cc4cccc(Cl)c4cn3)cnc2C#N)CC1 [AA-014] | ≤ 1 µM | ≤ 10 µM | ≤ 10 µM |
| N#Cc1ncc(Nc2cc3cccc(Br)c3cn2)nc1OC[C@H]1CNCCO1 [AA-051] | ≤ 1 µM | ≤ 10 µM | ≤ 10 µM |
| N#Cc1ncc(Nc2cc3cccc(NCCCO)c3cn2)nc1O[C@@H]1CCNC1 [AA-040] | ≤ 1 µM | ≤ 10 µM | ≤ 10 µM |
| COCCCNc1cccc2cc(Nc3cnc(C#N)c(O[C@H](C)CN(C)C)n3)ncc12 [AA-038] | ≤ 1 µM | ≤ 10 µM | ≤ 10 µM |

Now from value to compound, other results behind:

| IC50 (CHK1) | IC50 (HT29 cells) | Structure (SMILES) | IC50 [1] |
| --- | --- | --- | --- |
| ≤ 1 µM | ≤ 10 µM | COc1cccc2cc(Nc3cnc(C#N)c(O[C@H](C)CN(C)C)n3)ncc12 [AA-067, (R)-3-(1-(Dimethylamino)propan-2-yloxy)-5-(8-methoxyisoquinolin-3-ylamino)pyrazine-2-carbonitrile] | ≤ 10 µM |
| ≤ 1 µM | ≤ 10 µM | Cc1cccc2cc(Nc3cnc(C#N)c(O[C@@H]4CCNC4)n3)ncc12 [AA-058] | ≤ 10 µM |
| ≤ 1 µM | ≤ 10 µM | Cc1cccc2cc(Nc3cnc(C#N)c(O[C@H](C)CN(C)C)n3)ncc12 [AA-057] | ≤ 10 µM |
| ≤ 1 µM | ≤ 10 µM | CNc1cccc2cc(Nc3cnc(C#N)cn3)ncc12 [AA-059] | ≤ 10 µM |
| ≤ 1 µM | ≤ 10 µM | C[C@H](CN(C)C)Oc1nc(Nc2cc3cccc(F)c3cn2)cnc1C#N [AA-054] | ≤ 10 µM |
| ≤ 1 µM | ≤ 10 µM | N#Cc1ncc(Nc2cc3cccc(C(F)(F)F)c3cn2)nc1O[C@@H]1CCNC1 [AA-055] | ≤ 10 µM |
